How the values were obtained:
Type in all cases: in vivo
[1] = system: Ctenocephalides felis; test: Ctenocephalides felis oral test; conditions: 48 h, application rate 100 ppm in citrated cattle blood, kill after 2 days, read-out: efficacy
Description: Solvent: dimethyl sulfoxide To produce a suitable active ingredient formulation, 10 mg of active ingredient are mixed with 0.5 ml of dimethyl sulfoxide. Dilution with citrated cattle blood gives the desired concentration. About 20 unfed adult cat fleas (Ctenocephalides felis) are placed into a chamber which is closed at the top and bottom with gauze. A metal cylinder whose bottom end is closed with parafilm is placed onto the chamber. The cylinder contains the blood/active ingredient formulation, which can be imbibed by the fleas through the parafilm membrane. After 2 days, the kill in % is determined. 100% means that all of the fleas have been killed; 0% means that none of the fleas have been killed.

[2] = system: Myzus persicae; test: Myzus persicae oral test; conditions: 120 h, application rate 4 ppm, after 5 days, read-out: efficacy
Description: [table] To produce a suitable active ingredient formulation, 1 part by weight of active ingredient is dissolved with the stated parts by weight of solvent and made up to the desired concentration with water. 50 μl of the active ingredient formulation are transferred into microtitre plates and made up to a final volume of 200 μl with 150 μl of IPL41 insect medium (33%+15% sugar). Subsequently, the plates are sealed with parafilm, which a mixed population of green peach aphids (Myzus persicae) within a second microtitre plate is able to puncture and imbibe the solution. After 5 days, the efficacy in % is determined. 100% means that all the aphids have been killed; 0% means that no aphids have been killed.

[3] = system: Spodoptera frugiperda; test: Spodoptera frugiperda spray test; conditions: foliar, 168 h, application rate 100 g/ha, maize leaf discs, caterpillars, after 7 days, read-out: efficacy
Description: (§1) [table] To produce a suitable active ingredient formulation, 1 part by weight of active ingredient is dissolved with the specified parts by weight of solvent and made up to the desired concentration with water containing an emulsifier concentration of 1000 ppm. To produce further test concentrations, the formulation is diluted with emulsifier-containing water. Leaf discs of maize (Zea mays) are sprayed with an active ingredient formulation of the desired concentration and, after drying, populated with caterpillars of the fall armyworm (Spodoptera frugiperda). After 7 days, the efficacy in % is determined. 100% means that all the caterpillars have been killed; 0% means that no caterpillar has been killed.

[4] = system: Tetranychus urticae; test: Tetranychus urticae spray test, OP-resistant; conditions: foliar, 144 h, application rate 100 g/ha, bean leaf discs, after 6 days, read-out: efficacy
Description: as §1, with “Discs” for “Leaf discs”, “bean leaves (Phaseolus vulgaris) infested with all stages of the greenhouse red spider mite (Tetranychus urticae)” for “maize (Zea mays)”, “concentration.” for “concentration and, after drying, populated with caterpillars of the fall armyworm (Spodoptera frugiperda).”, “6” for “7”, “spider mites” for “caterpillars”, “spider mites have” for “caterpillar has”

[5] = system: Myzus persicae; test: Myzus persicae spray test; conditions: foliar, 120 h, application rate 100 g/ha, Chinese cabbage leaf discs, after 5 days, read-out: efficacy
Description: as §1, with “Discs” for “Leaf discs”, “Chinese cabbage leaves (Brassica pekinensis) infested by all stages of the green peach aphid (Myzus persicae)” for “maize (Zea mays)”, “concentration.” for “concentration and, after drying, populated with caterpillars of the fall armyworm (Spodoptera frugiperda).”, “5” for “7”, “aphids” for “caterpillars”, “aphids have” for “caterpillar has”

[6] = system: Lucilia cuprina; test: Lucilia cuprina test; conditions: 48 h, application rate 100 ppm, L1 larvae, kill after 2 days, read-out: efficacy
Description: Solvent: dimethyl sulfoxide To produce a suitable active ingredient formulation, 10 mg of active ingredient are mixed with 0.5 ml of dimethyl sulfoxide, and the concentrate is diluted with water to the desired concentration. About 20 L1 larvae of the Australian sheep blowfly (Lucilia cuprina) are transferred into a test vessel containing minced horsemeat and the active ingredient formulation of the desired concentration. After 2 days, the kill in % is determined. 100% means that all the larvae have been killed; 0% means that no larvae have been killed.

[7] = system: Phaedon cochleariae; test: Phaedon cochleariae spray test; conditions: 168 h, application rate 100 g/ha, larvae, after 7 days, read-out: efficacy
Description: as §1, with “water. Discs” for “water. Leaf discs”, “of Chinese cabbage leaves (Brassica pekinensis)” for “of maize (Zea mays)”, “with larvae” for “with caterpillars”, “the mustard beetle (Phaedon cochleariae).” for “the fall armyworm (Spodoptera frugiperda).”, “the beetle larvae” for “the caterpillars”, “no beetle larvae have” for “no caterpillar has”

SMILES: CCS(=O)(=O)c1c(-c2nc3cc(C(F)(F)F)ncc3n2C)nc(Cl)n1C(C)C [Example I-025]
- pest or weed control at 100 ppm [1]: 80%
- pest or weed control at 4 ppm [2]: 100%
- pest or weed control at 100 g/ha [3]: 100%

SMILES: CCS(=O)(=O)c1c(-c2nc3cc(C(F)(F)F)ncc3n2C)nc(C(C)C)n1C [Example I-086]
- pest or weed control at 100 g/ha [4]: 90%
- pest or weed control at 4 ppm [2]: 100%
- pest or weed control at 100 g/ha [5]: 90%

SMILES: CCS(=O)(=O)c1c(-c2nc3cc(C(F)(F)F)ncc3n2C)nc(C(=O)N(C)C)n1C [Example I-040]
- pest or weed control at 100 ppm [6]: 100%
- pest or weed control at 100 ppm [1]: 90%
- pest or weed control at 4 ppm [2]: 100%
- pest or weed control at 100 g/ha [5]: 100%

SMILES: C=C(C)c1nc(-c2nc3cc(C(F)(F)F)ncc3n2C)c(S(=O)(=O)CC)n1C [Example I-008]
- pest or weed control at 100 ppm [6]: 100%
- pest or weed control at 4 ppm [2]: 100%
- pest or weed control at 100 g/ha [5]: 90%

SMILES: CCS(=O)(=O)c1c(-c2nc3cc(C(F)(F)F)ncc3n2C)nc(C(N)=O)n1C [Example I-038, 5-(Ethylsulfonyl)-1-methyl-4-[3-methyl-6-(trifluoromethyl)-3H-imidazo[4,5-c]pyridin-2-yl]-1H-imidazole-2-carboxamide]
- pest or weed control at 100 ppm [1]: 100%
- pest or weed control at 4 ppm [2]: 100%
- pest or weed control at 100 g/ha [7]: 100%
- pest or weed control at 100 g/ha [5]: 90%

SMILES: CCS(=O)(=O)c1c(-c2nc3cc(C(F)(F)F)ncc3n2C)nc(-c2cccc(C(C)(C)C#N)c2)n1C [Example I-075]
- pest or weed control at 100 g/ha [4]: 90%
- pest or weed control at 4 ppm [2]: 100%
- pest or weed control at 100 g/ha [5]: 90%

SMILES: CCS(=O)(=O)c1c(-c2nc3cc(C(F)(F)F)ncc3n2C)nc(-c2ccncc2)n1C [Example I-021]
- pest or weed control at 100 ppm [6]: 80%
- pest or weed control at 4 ppm [2]: 100%
- pest or weed control at 100 g/ha [5]: 100%

SMILES: CCS(=O)(=O)c1c(-c2nc3cc(C(F)(F)F)ncc3n2C)nc(C(=O)NC)n1C [Example I-039]
- pest or weed control at 100 ppm [1]: 100%
- pest or weed control at 4 ppm [2]: 100%
- pest or weed control at 100 g/ha [5]: 100%

SMILES: CCS(=O)(=O)c1c(-c2nc3cc(C(F)(F)F)ncc3n2C)nc(C(N)=S)n1C [Example I-046, 5-(Ethylsulfonyl)-1-methyl-4-[3-methyl-6-(trifluoromethyl)-3H-imidazo[4,5-c]pyridin-2-yl]-1H-imidazole-2-carbothioamide]
- pest or weed control at 100 ppm [6]: 95%
- pest or weed control at 4 ppm [2]: 100%
- pest or weed control at 100 g/ha [7]: 100%

SMILES: CCS(=O)(=O)c1c(-c2nc3cc(C(F)(F)F)ncc3n2C)nc(-c2ccccc2)n1C(C)C [Example I-012]
- pest or weed control at 100 ppm [6]: 100%
- pest or weed control at 4 ppm [2]: 100%
- pest or weed control at 100 g/ha [5]: 90%

SMILES: CCS(=O)(=O)c1c(-c2nc3cc(C(F)(F)F)ncc3n2C)nc(C2=CCC(C)CC2)n1C (stereo not shown) [Example I-074]
- pest or weed control at 100 g/ha [4]: 90%
- pest or weed control at 100 g/ha [5]: 90%

SMILES: CCS(=O)(=O)c1c(-c2nc3cc(C(F)(F)F)ncc3n2C)ncn1C [Example I-029, 2-[5-(Ethylsulfonyl)-1-methyl-1H-imidazol-4-yl]-3-methyl-6-(trifluoromethyl)-3H-imidazo[4,5-c]pyridine]
- pest or weed control at 100 ppm [6]: 95%
- pest or weed control at 100 ppm [1]: 95%
- pest or weed control at 4 ppm [2]: 100%
- pest or weed control at 100 g/ha [7]: 100%
- pest or weed control at 100 g/ha [5]: 70%

SMILES: CCS(=O)(=O)c1c(-c2nc3cc(C(F)(F)F)ncc3n2C)nc(-c2ccnnc2)n1C [Example I-030]
- pest or weed control at 100 ppm [6]: 100%
- pest or weed control at 4 ppm [2]: 100%
- pest or weed control at 100 g/ha [5]: 100%

SMILES: CCS(=O)(=O)c1c(-c2nc3cc(C(F)(F)F)ncc3n2C)nc(-c2ccc(C#N)n2C)n1C [Example I-054]
- pest or weed control at 100 g/ha [4]: 100%
- pest or weed control at 4 ppm [2]: 90%

SMILES: CCn1c(Br)nc(-c2nc3cc(C(F)(F)F)ncc3n2C)c1S(=O)(=O)CC [Example I-001]
- pest or weed control at 100 ppm [6]: 100%
- pest or weed control at 4 ppm [2]: 100%

SMILES: CCS(=O)(=O)c1c(-c2nc3cc(C(F)(F)F)ncc3n2C)nc(-c2ccsc2)n1C [Example I-043]
- pest or weed control at 100 ppm [6]: 100%
- pest or weed control at 4 ppm [2]: 100%
- pest or weed control at 100 g/ha [5]: 90%

Source: patent publication US11083199B2, “Heterocycle derivatives as pesticides” (Bayer Aktiengesellschaft, priority 2017, dated 2021)
